# Earlier results as cited in patent US20140276034A1, “Apparatus Detection of Circulatory Anomalies” (Cardiox Corporation, priority 2013, published 2014).
# Settings: manufacturers specified guideline; cited from earlier work
smiles,measurement,value
"CC1(C)C(=CC=CC=CC=CC2=[N+](CCCCS(=O)(=O)[O-])c3ccc4ccccc4c3C2(C)C)N(CCCCS(=O)(=O)[O-])c2ccc3ccccc3c21.[Na+] [ICG, 1H-benz(e)indolium, 2-[7-[1,3-dihydro-1,1-dimethyl-3-(4-sulfobutyl)-2H-benz[e]indo-2-ylidene]-1,3,5-heptatrienyl]-1,1-dimethyl-3-(4-sulfobutyl)-hydroxide, inner salt, sodium]",maximum ICG dose per day,2 milligrams per kilogram of body weight
